Measured values from patent US10428080B2, “TBK/IKK inhibitor compounds and uses thereof” (Merck Patent GmbH, priority 2015, dated 2019).
Counter-ions that a name gives are not always drawn.

What was measured:
[1] = molecular target: T1, TBK1 (Homo sapiens, UniProt Q9UHD2); test: TBK Biochemical Assay; conditions: read-out: TBK1 IC50
T1 sequence (Q9UHD2 1-729): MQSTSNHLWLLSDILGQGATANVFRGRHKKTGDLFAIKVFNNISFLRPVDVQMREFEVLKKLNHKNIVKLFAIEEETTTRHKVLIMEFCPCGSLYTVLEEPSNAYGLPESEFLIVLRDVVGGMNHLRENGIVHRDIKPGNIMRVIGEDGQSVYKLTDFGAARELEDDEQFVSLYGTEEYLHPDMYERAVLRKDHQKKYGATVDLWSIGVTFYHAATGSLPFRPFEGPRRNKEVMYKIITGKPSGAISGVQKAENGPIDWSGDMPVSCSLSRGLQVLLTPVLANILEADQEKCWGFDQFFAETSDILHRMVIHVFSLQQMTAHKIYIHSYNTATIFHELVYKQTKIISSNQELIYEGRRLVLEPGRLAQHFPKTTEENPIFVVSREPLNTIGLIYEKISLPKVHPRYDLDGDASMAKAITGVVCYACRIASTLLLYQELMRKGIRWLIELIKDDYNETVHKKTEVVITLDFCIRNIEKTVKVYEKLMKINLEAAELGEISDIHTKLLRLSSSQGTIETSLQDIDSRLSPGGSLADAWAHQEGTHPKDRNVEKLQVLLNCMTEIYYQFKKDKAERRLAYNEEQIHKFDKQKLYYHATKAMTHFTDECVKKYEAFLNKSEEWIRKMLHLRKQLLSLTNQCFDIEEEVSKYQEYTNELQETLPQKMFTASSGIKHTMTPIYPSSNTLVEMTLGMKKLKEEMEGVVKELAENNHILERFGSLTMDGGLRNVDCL
How it was run: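 TBK1 enzyme and substrate incubated with compounds (10-point 1:4 dilution, top 30 uM final, 1% DMSO) for 90 min at 25° C, then stopped. Substrate/product peaks read by microfluidic mobility-shift (Caliper LabChip); 10 uM staurosporine as full-inhibition control.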

[2] = molecular target: T2, IKKε (Homo sapiens, UniProt Q14164); test: IKKe Biochemical Assay; conditions: read-out: IKKε IC50
T2 sequence (Q14164 1-716): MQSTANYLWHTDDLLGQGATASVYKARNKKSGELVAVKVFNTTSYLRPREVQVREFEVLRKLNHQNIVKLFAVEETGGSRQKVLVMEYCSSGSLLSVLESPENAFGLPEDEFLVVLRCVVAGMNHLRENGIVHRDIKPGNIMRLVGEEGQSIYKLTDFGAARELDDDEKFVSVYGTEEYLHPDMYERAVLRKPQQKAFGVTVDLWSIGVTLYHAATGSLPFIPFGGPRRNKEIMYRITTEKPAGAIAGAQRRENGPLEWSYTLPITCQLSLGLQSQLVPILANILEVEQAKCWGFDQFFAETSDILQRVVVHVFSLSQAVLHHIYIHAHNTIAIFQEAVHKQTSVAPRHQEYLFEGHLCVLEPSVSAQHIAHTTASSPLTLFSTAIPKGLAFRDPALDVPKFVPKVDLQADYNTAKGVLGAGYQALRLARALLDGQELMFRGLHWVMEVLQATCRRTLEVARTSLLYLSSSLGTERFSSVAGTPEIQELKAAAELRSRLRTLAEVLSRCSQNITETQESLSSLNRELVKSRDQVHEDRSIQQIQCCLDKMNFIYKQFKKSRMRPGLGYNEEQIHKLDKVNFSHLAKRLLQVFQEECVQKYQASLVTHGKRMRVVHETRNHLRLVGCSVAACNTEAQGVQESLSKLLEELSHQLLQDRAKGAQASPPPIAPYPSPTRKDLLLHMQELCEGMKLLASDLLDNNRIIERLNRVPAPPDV
How it was run: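 Recombinant IKKε and substrate were incubated with compound (10-point 1:4 series, top 30 uM final, 1% DMSO) for 90 min at 25° C, then stopped. Substrate-to-product conversion was read by LabChip microfluidic mobility shift; 10 uM staurosporine served as full-inhibition wells.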

Row | SMILES | IC50 [1] [µM] | IC50 [2] [µM]
1 | COc1cc(C(=O)N(C)CCO)cnc1-c1cc2ncc(C3CC3)c(-c3ccc(OC4CCOCC4)c(C#N)c3)c2o1 [Compound 341, 6-[7-[3-cyano-4-(oxan-4-yloxy)phenyl]-6-cyclopropylfuro[3,2-b]pyridin-2-yl]-N-(2-hydroxyethyl)-5-methoxy-N-methylpyridine-3-carboxamide hydrochloride] | > 5 | > 5
2 | COc1cc(C(=O)N(C)CCO)cnc1-c1cc2ncc(Cl)c(-c3ccc(OC4CCOCC4)c(C#N)c3)c2o1 [Compound 342, 6-[6-chloro-7-[3-cyano-4-(oxan-4-yloxy)phenyl]furo[3,2-b]pyridin-2-yl]-N-(2-hydroxyethyl)-5-methoxy-N-methylpyridine-3-carboxamide hydrochloride] | 1 to 5 | 1 to 5
3 | COc1cc(C(=O)N(C)C)cnc1-c1cc2ncc(C3CC3)c(-c3ccc(OC4CCOCC4)c(C#N)n3)c2o1 [Compound 357, 6-[7-[6-cyano-5-(oxan-4-yloxy)pyridin-2-yl]-6-cyclopropylfuro[3,2-b]pyridin-2-yl]-5-methoxy-N,N-dimethylpyridine-3-carboxamide hydrochloride] | > 5 | > 5
4 | COc1cc(C(=O)N(C)C)cnc1-c1cc2ncc(OC)c(-c3ccc(NC4CCOCC4)c(C#N)n3)c2o1 [Compound 358, 6-(7-[6-cyano-5-[(oxan-4-yl)amino]pyridin-2-yl]-6-methoxyfuro[3,2-b]pyridin-2-yl)-5-methoxy-N,N-dimethylpyridine-3-carboxamide] | 1 to 5 | 1 to 5
5 | COc1cc(C(=O)N(C)CCO)cnc1-c1cc2ncc(C)c(-c3ccc(OC4CCOCC4)c(C#N)n3)c2o1 [Compound 360, 6-[7-[6-cyano-5-(oxan-4-yloxy)pyridin-2-yl]-6-methylfuro[3,2-b]pyridin-2-yl]-N-(2-hydroxyethyl)-5-methoxy-N-methylpyridine-3-carboxamide hydrochloride] | 0.1 to 1 | 0.1 to 1
6 | COc1cc(C(=O)N(C)CCO)cnc1-c1cc2ncc(OC)c(-c3ccc(OC4CCOCC4)c(C#N)n3)c2o1 [Compound 362, 6-[7-[6-cyano-5-(oxan-4-yloxy)pyridin-2-yl]-6-methoxyfuro[3,2-b]pyridin-2-yl]-N-(2-hydroxyethyl)-5-methoxy-N-methylpyridine-3-carboxamide] | 0.1 to 1 | 0.1 to 1

Other lines, results leading:

Row | IC50 [1] [µM] | IC50 [2] [µM] | SMILES
7 | 0.1 to 1 | 1 to 5 | COc1cc(C(=O)N(C)C)cnc1-c1cc2ncc(OC)c(-c3ccc(NC4CCOCC4)c(C#N)c3)c2o1 [Compound 340, 6-(7-[3-cyano-4-[(oxan-4-yl)amino]phenyl]-6-methoxyfuro[3,2-b]pyridin-2-yl)-5-methoxy-N,N-dimethylpyridine-3-carboxamide]
8 | 0.1 to 1 | 0.1 to 1 | COc1cc(C(=O)N(C)CCO)cnc1-c1cc2ncc(OC)c(-c3ccc(OC4CCOCC4)c(C#N)c3)c2o1 [Compound 343, 6-[7-[3-cyano-4-(oxan-4-yloxy)phenyl]-6-methoxyfuro[3,2-b]pyridin-2-yl]-N-(2-hydroxyethyl)-5-methoxy-N-methylpyridine-3-carboxamide]
9 | 0.1 to 1 | 0.1 to 1 | COc1cc(C(=O)N(C)C)cnc1-c1cc2ncc(F)c(-c3ccc(OC4CCOCC4)c(C#N)n3)c2o1 [Compound 351, 6-[7-[6-cyano-5-(oxan-4-yloxy)pyridin-2-yl]-6-fluorofuro[3,2-b]pyridin-2-yl]-5-methoxy-N,N-dimethylpyridine-3-carboxamide hydrochloride]
10 | 0.1 to 1 | 1 to 5 | COc1cc(C(=O)N(C)CCO)cnc1-c1cc2ncc(F)c(-c3ccc(OC4CCOCC4)c(C#N)n3)c2o1 [Compound 354, 6-[7-[6-cyano-5-(oxan-4-yloxy)pyridin-2-yl]-6-fluorofuro[3,2-b]pyridin-2-yl]-N-(2-hydroxyethyl)-5-methoxy-N-methylpyridine-3-carboxamide hydrochloride]
